≈ marks a conversion by molar mass, not a printed value.
How the values were obtained:
Format in all cases: functional
[1] = system: Mycobacterium tuberculosis; experiment: Antitubercular activity against isoniazid, rifampicin, fluoroquinolones-resistant Mycobacterium tuberculosis assessed as inhibition of bacterial growth incubated for 6 days by MABA assay; conditions: 144 h, time 6 day
[2] = system: Mycobacterium tuberculosis; experiment: Antitubercular activity against INH, SM, RFP, EMB, RBT, PAS, OLFX-resistant Mycobacterium tuberculosis 13946 assessed as inhibition of bacterial growth
[3] = system: Mycobacterium tuberculosis; experiment: Antitubercular activity against INH, SM, RFP, EMB, PAS, Prothionamide 1321, Capreomycin-resistant Mycobacterium tuberculosis 14862 assessed as inhibition of bacterial growth

Row | SMILES | MIC [1] | MIC [2] | MIC [3]
1 | CCOC(=O)c1c(NC(=O)c2c(F)c(F)c(F)c(F)c2F)sc2c1CCN(CC)C2 | 0.2 µM (≈ 0.0897 µg/mL) | – | –
2 | O=c1cc(-c2ccc(O)cc2)oc2ccc(O)c(CN3CCCC3)c12 | – | 3.81 µg/mL (≈ 11.3 µM) | 3.82 µg/mL (≈ 11.3 µM)
3 | O=c1cc(-c2ccc(O)cc2)oc2ccc(O)c(CN3CCC3)c12 | – | 1.76 µg/mL (≈ 5.43 µM) | 1.64 µg/mL (≈ 5.08 µM)
4 | NNC(=O)c1ccncc1 [ISONIAZID] | – | 2.38 µg/mL (≈ 17.3 µM) | > 10 µg/mL
5 | CO[C@H]1/C=C/O[C@@]2(C)Oc3c(C)c(O)c4c(O)c(c(/C=N/N5CCN(C)CC5)c(O)c4c3C2=O)NC(=O)/C(C)=C\C=C\[C@H](C)[C@H](O)[C@@H](C)[C@@H](O)[C@@H](C)[C@H](OC(C)=O)[C@@H]1C [RIFAMPIN] | – | > 10 µg/mL | > 10 µg/mL

— ChEMBL document CHEMBL4765252, “Design, synthesis, and biological evaluation of novel 4H-chromen-4-one derivatives as antituberculosis agents against multidrug-resistant tuberculosis” (Eur J Med Chem, 2020)
